Measurements: US9856225B2, “Substituted phenazines as antimicrobial agents” (University of Florida Research Foundation, Incorporated, priority 2013, dated 2018)
“Also recorded” adds a separate entry of the source. Where two headings read alike, the source gives them in different places. Marks after values point to notes of the source that are not given here.

Key:
Type in all cases: cell-based
[1] = tested on: Acinetobacter baumannii (ATCC 19606) biofilm; test: Biofilm inhibition, Mueller-Hinton broth, crystal violet; conditions: for inhibition at 100 µM: Acinetobacter baumannii
Description: (§1) Biofilm Inhibition Protocol for A. baumannii (ATCC 19606): In a 96-well plate, ten two-fold serial dilutions of each compound tested were made from the highest concentration tested (100 μM) in a final volume of 100 μL in Mueller-Hinton broth (one column served as a blank). Each well was inoculated with ˜7×10^6 colony forming units per milliliter (corresponding to an OD600 of 0.01 prepared directly from an overnight culture). A lid was placed on the 96-well plate which was wrapped in suran wrap, placed in a humidifying chamber and incubated under static conditions at 37° C. for 24 hours. Following incubation, the media and planktonic bacteria were then removed from 96-well plates and the wells were then washed with water. The bacterial biofilms within the microtiter wells were stained with 200 μL of an aqueous 0.1% crystal violet solution that was allowed to stand for 10-20 minutes. The crystal violet stain was then removed, the wells were rinsed with water and dried. The crystal violet stain that remained on the inside of the wells (i.e., stained bacterial biofilm) on the inside of the wells was solubilized by the addition of 200 μL ethanol and absorbance was read at OD540 using a spectrophotometer. NOTE: The concentration range tested for each compound was 0.2-100 μM. Single data points for all compounds and DMSO controls were tested in two replicate rows in 96-well plates and corresponding absorbance readings were averaged for the quantification of planktonic growth and biofilm formation. Reported percent biofilm inhibition was determined by the comparison of compound treated wells (the average of the two replicate wells) versus vehicle control wells without compound following background subtraction (i.e., an empty, untreated well) and reported from 2 to 4 independent overnight cultures. DMSO was serially diluted at the same concentration as test compounds with a top concentration of 1% v/v.
(§2) The bromophenazines were also evaluated against the Gram-negative bacterium Acinetobacter baumannii in order to identify biofilm modulating small molecules against this emerging pathogen. Acinetobacter baumannii is notorious for its ability to persist as bacterial biofilms on hospital surfaces, giving rise to many multidrug-resistant nosocomial infections. Clinical isolates of A. baumannii have been identified that are resistant to every class of antibiotic clinically used. The bromophenazines were evaluated against Acinetobacter baumannii ATCC 19606 in biofilm inhibition assays. Bromophenazines were allowed to incubate in 96-well plates with Acinetobacter baumannii (˜7×10^6 CFUmL^−1 by adjusting an overnight culture to an OD600˜0.01) for 24 hours at 37° C. using Mueller-Hinton broth followed by spectrophometer readings of each plate to evaluate planktonic growth (OD600) and biofilm formation (OD540 after crystal violet stain of biofilms inside microtiter wells). […] This biofilm inhibition with activation of planktonic growth activity was dose-dependent with bromophenazine 17a (see FIG. 20).

[2] = tested on: Acinetobacter baumannii (ATCC 19606); test: Planktonic growth (OD600) in biofilm inhibition assay; conditions: for increase in planktonic growth: OD600; for inhibition of growth at 100 µM: Acinetobacter baumannii, ATCC19606, 24 h, read-out: % Growth Inhibition at 100 μM
Description: as §1, with “Each” for “Biofilm Inhibition Protocol for A. baumannii (ATCC 19606): In a 96-well plate, ten two-fold serial dilutions of each compound tested were made from the highest concentration tested (100 μM) in a final volume of 100 μL in Mueller-Hinton broth (one column served as a blank). Each”, “NOTE: The concentration range tested for each compound was 0.2-100 μM.” left out
as §2

[3] = tested on: Staphylococcus aureus (ATCC 25923) biofilm; test: Biofilm inhibition, crystal violet staining; parameters: MIC/IC50 Biofilm: unit not given here; conditions: for IC50: Staphylococcus aureus; for MIC/IC50 Biofilm: ratio of MIC to IC50 of biofilm inhibition; for Phenotype: planktonic growth vs biofilm formation
Description: Biofilm Inhibition Protocol for S. aureus (ATCC 25923). A serial two-fold dilution of 2× bromophenazine small molecule concentration was made in 100 μL tryptic soy broth (TSB) medium with 0.5% glucose were delivered into 0.1% gelatin (Millipore) coated 96-well tissue culture plates. […] To each well, 100 μL of TSB with 0.5% glucose containing 2×10^6 CFU/mL Staphylococcus aureus cells, prepared from fresh culture (OD600 of 0.8), was added. The plates were incubated at 37° C. for 24 hours. The wells were gently rinsed by submerging the entire plates in a tub of cold, running tap water. The wells were then fixed with 200 μL methanol for 15 minutes. After the plates were air dried, the biofilms were stained with 100 μL of 1% crystal violet for 10 minutes. The plates were again rinsed with running water. After drying in air, quantitative assessment of biofilm formation was obtained by extracting the crystal violet associated with the remaining biofilm with 100 μL per well of the following bleaching solution (methanol:glacial acetic acid:water (v/v/v)=4:1:5). This bleaching solution dissolved the bound crystal violet and produced a violet-colored solution in each well. The intensity of coloration was determined by measuring the absorbance at 540 nm.

[4] = tested on: Staphylococcus aureus (ATCC 25923); test: MIC broth microdilution (CLSI), Luria Broth
Description: Antibiotic Susceptibility Tests (MIC Assay Protocol). The minimum inhibitory concentration (MIC) for each compound described herein was determined by the broth microdilution method as recommended by the Clinical and Laboratory Standards Institute (CLSI) (Clinical and Laboratory Standards Institute. 2009. Methods for dilution antimicrobial susceptibility tests for bacteria that grow aerobically; approved standard, eighth edition (M7-A8)). In a 96-well plate, eleven two-fold serial dilutions of each compound were made in a final volume of 100 μL Luria Broth (one column served as a blank; see the MIC assay described herein). Each well was inoculated with 10^5 bacterial cells at the initial time of incubation, prepared from a fresh log phase culture (OD600 of 0.5). […] The concentration range tested for each compound during this study was 0.10 to 100 μM. DMSO served as the vehicle and negative control in each microdilution MIC assay. DMSO was serially diluted at the same concentration as the compounds with a top concentration of 1% v/v. Bacterial strains used: Staphylococcus aureus (ATCC 25923), Staphylococcus epidermidis (ATCC 12228) and Pseudomonas aeruginosa (PAO1). Kanamycin was used as a positive control against Staphylococcus aureus and Staphylococcus epidermidis.

[5] = ATCC19606, A. baumannii ATCC 19606, 100 μM, read-out: % Biofilm Inhibition at 100 μM
[6] = A. baumannii ATCC 19606, 100 μM, * = no growth inhibition at 200 μM
[7] = ATCC25923, S. aureus ATCC 25923, single replicate screen, read-out: Biofilm Inhibition IC50
[8] = Staphylococcus aureus, ATCC25923, Table 2, S. aureus ATCC 25923, Luria Broth, read-out: MIC
[9] = Staphylococcus aureus, ATCC25923, Table 1, ATCC 25923, range tested 0.10 to 100 μM, read-out: Staphylococcus aureus MIC
[10] = Staphylococcus aureus, ATCC25923, Table 1, ATCC 25923, read-out: Staphylococcus aureus MIC

Compound	inhibition at 100 µM [1, 5] [%]	increase in planktonic growth ([2]; 100 μM) [%]	planktonic growth inhibition at 200 μM [2]	inhibition of growth at 100 µM [2, 6] [%]	IC50 [3, 7] [nM]	MIC/IC50 Biofilm ([3]; S. aureus ATCC 25923)	MIC [4, 8] [µM]	Phenotype ([3]; S. aureus ATCC 25923)	also measured
O=C(/C=C/c1ccccc1)Oc1c(Br)cc(Br)c2nc3ccccc3nc12 [Compound 9a]	52 ± 5	~15	did not inhibit planktonic growth	-18 ± 4	14800	>6.8	> 100	–	–
O=C(Oc1c(Br)cc(Br)c2nc3ccccc3nc12)c1ccc(C(F)(F)F)cc1 [Compound 16a]	29 ± 11	–	–	-3 ± 2	1300	9.6	–	antibacterial	–
O=C(Oc1c(Br)cc(Br)c2nc3ccccc3nc12)c1cc(C(F)(F)F)cc(C(F)(F)F)c1 [Compound 17a]	60 ± 8	~15	did not inhibit planktonic growth	-15 ± 3	1100	11.4	–	antibacterial	planktonic growth while biofilm formation is inhibited (in words) ([2]; Mueller-Hinton broth, FIG. 20): dose-dependent increases in planktonic growth
Cc1cc(C)c(C(=O)Oc2c(Br)cc(Br)c3nc4ccccc4nc23)c(C)c1 [Compound 19a]	44 ± 10	~15	did not inhibit planktonic growth	-14 ± 2	> 100000	–	> 100	inactive	–
COc1ccc(C(=O)Oc2c(Br)cc(Br)c3nc4ccccc4nc23)cc1 [Compound 20a]	17 ± 5	–	–	-6 ± 4	950	>105	> 100	–	Phenotype ([1]; A. baumannii ATCC 19606): inactive; IC50 ([3]; ATCC25923, S. aureus, three independent experiments, read-out: Biofilm inhibition IC50 (triplicate)): 10300 nM
O=C(Oc1c(Br)cc(Br)c2nc3ccccc3nc12)c1ccc2ccccc2c1 [Compound 21a]	35 ± 9	~15	did not inhibit planktonic growth	-15 ± 6	> 100000	–	> 100	inactive	–
O=C(Oc1c(Br)cc(Br)c2nc3ccccc3nc12)c1ccc2c(c1)OCO2 [Compound 22a]	29 ± 4	–	–	-14 ± 5	> 100000	–	> 100	–	–
O=C(Oc1c(Br)cc(Br)c2nc3ccccc3nc12)c1ccc(F)cc1 [Compound 24, 2,4-Dibromophenazin-1-yl 4-fluorobenzoate]	35 ± 4	–	–	-16 ± 6	2440	0.6	1.56	antibacterial	MIC [4, 9]: 1.56 µM; MIC [4, 10]: 0.74 µg/mL
O=C(Oc1c(Br)cc(Br)c2nc3ccccc3nc12)c1cccs1 [Compound 24a]	32 ± 8	–	–	-10 ± 7	790	>127**	> 100	antibacterial; also recorded: antibacterial**	MIC ([4]; Table 2, S. aureus ATCC 25923, Luria Broth): >100** μM
CN(C)C(=O)Oc1c(Br)cc(Br)c2nc3ccccc3nc12 [Compound 25a]	–	–	–	–	–	–	–	–	inhibition at 100 µM ([1]; ATCC19606, read-out: % Biofilm Inhibition at 100 μM): 15 ± 1%; inhibition of growth at 100 µM [2]: -3 ± 1%; IC50 ([3]; ATCC25923, read-out: Biofilm Inhibition IC50): > 100000 nM; MIC ([4]; Staphylococcus aureus, ATCC25923): > 100 µM
O=C(Oc1c(Br)cc(Br)c2nc3ccccc3nc12)C1CCCCC1 [Compound 26, 2,4-Dibromophenazin-1-yl cyclohexanecarboxylate]	11 ± 1	–	–	-25 ± 5	> 100000	–	> 100	inactive	Phenotype ([1]; A. baumannii ATCC 19606): inactive; MIC [4, 9]: > 100 µM; MIC [4, 10]: > 46.5 µg/mL
COc1c(Br)cc(Br)c2nc3ccccc3nc12 [Compound 27, 2,4-Dibromo-1-methoxyphenazine]	–	–	–	–	–	–	–	–	MIC [4, 9]: > 100 µM; MIC [4, 10]: > 36.9 µg/mL
